Tested on: CHIKV 181/clone25
Experiment: CHIKV cytopathic effect (CPE) protection assay in Vero cells
Format: cell-based
Conditions: Chikungunya virus; CHIKV 181/clone25, Vero cells, MOI=0.01, 48 hrs, protection from CPE (crystal violet, absorbance 595nm)

Compound	EC50
O=C(CC1Sc2ncccc2NC1=O)NCC1CCCCC1 (stereo not shown) [Example 2, N-(cyclohexylmethyl)-2-(2-oxo-2,3-dihydro-1H-pyrido[2,3-b][1,4]thiazin-3-yl)acetamide]	< 10 µM
COC(=O)CC1Sc2ncccc2NC1=O (stereo not shown) [Example 3, methyl 2-(2-oxo-2,3-dihydro-1H-pyrido[2,3-b][1,4]thiazin-3-yl)acetate]	> 100 µM
O=C(CC1Sc2ncccc2NC1=O)NCC1CCC(O)CC1 (stereo not shown) [Example 4, N-((4-hydroxycyclohexyl)methyl)-2-(2-oxo-2,3-dihydro-1H-pyrido[2,3-b][1,4]thiazin-3-yl)acetamide]	> 100 µM
O=C(O)CC1Sc2ncccc2NC1=O (stereo not shown) [Example 5, 2-(2-oxo-2,3-dihydro-1H-pyrido[2,3-b][1,4]thiazin-3-yl)acetic acid]	> 100 µM
CN1C(=O)[C@@H](CC(=O)NCC2CCCCC2)Sc2ncccc21 [Example 6, (R)-N-(cyclohexylmethyl)-2-(1-methyl-2-oxo-2,3-dihydro-1H-pyrido[2,3-b][1,4]thiazin-3-yl)acetamide]	< 10 µM
CN1C(=O)[C@H](CC(=O)NCC2CCCCC2)Sc2ncccc21 [Example 7, (S)-N-(cyclohexylmethyl)-2-(1-methyl-2-oxo-2,3-dihydro-1H-pyrido[2,3-b][1,4]thiazin-3-yl)acetamide]	10 to 49.9 µM
CN1CCN(C(=O)CC2Sc3ncccc3N(C)C2=O)CC1 (stereo not shown) [Example 8, 1-methyl-3-(2-(4-methylpiperazin-1-yl)-2-oxoethyl)-1H-pyrido[2,3-b][1,4]thiazin-2(3H)-one]	> 100 µM
CN1C(=O)C(CC(=O)NCC2CCCO2)Sc2ncccc21 (stereo not shown) [Example 9, 2-(1-methyl-2-oxo-2,3-dihydro-1H-pyrido[2,3-b][1,4]thiazin-3-yl)-N-((tetrahydrofuran-2-yl)methyl)acetamide]	> 100 µM
CC(C)NC(=O)CC1Sc2ncccc2N(C)C1=O (stereo not shown) [Example 10, N-isopropyl-2-(1-methyl-2-oxo-2,3-dihydro-1H-pyrido[2,3-b][1,4]thiazin-3-yl)acetamide]	> 100 µM
CCN1CCN(C(=O)CC2Sc3ncccc3N(C)C2=O)CC1 (stereo not shown) [Example 11, 3-(2-(4-ethylpiperazin-1-yl)-2-oxoethyl)-1-methyl-1H-pyrido[2,3-b][1,4]thiazin-2(3H)-one]	> 100 µM
CN1C(=O)C(CC(=O)NCc2ccccn2)Sc2ncccc21 (stereo not shown) [Example 12, 2-(1-methyl-2-oxo-2,3-dihydro-1H-pyrido[2,3-b][1,4]thiazin-3-yl)-N-(pyridin-2-ylmethyl)acetamide]	> 100 µM
CN1C(=O)C(CC(=O)NCc2cccnc2)Sc2ncccc21 (stereo not shown) [Example 13, 2-(1-methyl-2-oxo-2,3-dihydro-1H-pyrido[2,3-b][1,4]thiazin-3-yl)-N-(pyridin-3-ylmethyl)acetamide]	> 100 µM
CN1C(=O)C(CC(=O)NCc2ccncc2)Sc2ncccc21 (stereo not shown) [Example 14, 2-(1-methyl-2-oxo-2,3-dihydro-1H-pyrido[2,3-b][1,4]thiazin-3-yl)-N-(pyridin-4-ylmethyl)acetamide]	> 100 µM
CN1C(=O)C(CC(=O)NCc2ccccc2)Sc2ncccc21 (stereo not shown) [Example 15, N-benzyl-2-(1-methyl-2-oxo-2,3-dihydro-1H-pyrido[2,3-b][1,4]thiazin-3-yl)acetamide]	10 to 49.9 µM
CCC(C)NC(=O)CC1Sc2ncccc2N(C)C1=O (stereo not shown) [Example 16, N-(sec-butyl)-2-(1-methyl-2-oxo-2,3-dihydro-1H-pyrido[2,3-b][1,4]thiazin-3-y)acetamide]	> 100 µM
CC(NC(=O)CC1Sc2ncccc2N(C)C1=O)c1ccccc1 (stereo not shown) [Example 17, 2-(1-methyl-2-oxo-2,3-dihydro-1H-pyrido[2,3-b][1,4]thiazin-3-yl)-N-(1-phenylethyl)acetamide]	> 100 µM

Compound	EC50
COCCNC(=O)CC1Sc2ncccc2N(C)C1=O (stereo not shown) [Example 18, N-(2-methoxyethyl)-2-(1-methyl-2-oxo-2,3-dihydro-1H-pyrido[2,3-b][1,4]thiazin-3-yl)acetamide]	> 100 µM
CN1C(=O)C(CC(=O)NC2CCCCC2)Sc2ncccc21 (stereo not shown) [Example 19, N-cyclohexyl-2-(1-methyl-2-oxo-2,3-dihydro-1H-pyrido[2,3-b][1,4]thiazin-3-yl)acetamide]	> 100 µM
CN1C(=O)C(CC(=O)NC2=CCCCC2)Sc2ncccc21 (stereo not shown) [Example 20, N-(cyclohex-1-en-1-yl)-2-(1-methyl-2-oxo-2,3-dihydro-1H-pyrido[2,3-b][1,4]thiazin-3-yl)acetamide]	10 to 49.9 µM
COCCCNC(=O)CC1Sc2ncccc2N(C)C1=O (stereo not shown) [Example 21, N-(3-methoxypropyl)-2-(1-methyl-2-oxo-2,3-dihydro-1H-pyrido[2,3-b][1,4]thiazin-3-yl)acetamide]	> 100 µM
CN1C(=O)C(CC(=O)NC2CCCC2)Sc2ncccc21 (stereo not shown) [Example 22, N-cyclopentyl-2-(1-methyl-2-oxo-2,3-dihydro-1H-pyrido[2,3-b][1,4]thiazin-3-yl)acetamide]	50 to 99.9 µM
CN1C(=O)C(CC(=O)NC2CCCCCC2)Sc2ncccc21 (stereo not shown) [Example 23, N-cycloheptyl-2-(1-methyl-2-oxo-2,3-dihydro-1H-pyrido[2,3-b][1,4]thiazin-3-yl)acetamide]	10 to 49.9 µM
CN1C(=O)C(CC(=O)NCc2ccc(F)cc2)Sc2ncccc21 (stereo not shown) [Example 24, N-(4-fluorobenzyl)-2-(1-methyl-2-oxo-2,3-dihydro-1H-pyrido[2,3-b][1,4]thiazin-3-yl)acetamide]	< 10 µM
CN1C(=O)C(CC(=O)NCc2ccccc2C(F)(F)F)Sc2ncccc21 (stereo not shown) [Example 25, 2-(1-methyl-2-oxo-2,3-dihydro-1H-pyrido[2,3-b][1,4]thiazin-3-yl)-N-(2-(trifluoromethyl)benzyl)aceta-mide]	> 100 µM
Cc1ccc(CNC(=O)CC2Sc3ncccc3N(C)C2=O)cc1 (stereo not shown) [Example 26, 2-(1-methyl-2-oxo-2,3-dihydro-1H-pyrido[2,3-b][1,4]thiazin-3-yl)-N-(4-methylbenzyl)acetamide]	10 to 49.9 µM
CN(Cc1ccccc1)C(=O)CC1Sc2ncccc2N(C)C1=O (stereo not shown) [Example 27, N-benzyl-N-methyl-2-(1-methyl-2-oxo-2,3-dihydro-1H-pyrido[2,3-b][1,4]thiazin-3-yl)acetamide]	> 100 µM
CN(C)CCCNC(=O)CC1Sc2ncccc2N(C)C1=O (stereo not shown) [Example 28, N-(3-(dimethylamino)propyl)-2-(1-methyl-2-oxo-2,3-dihydro-1H-pyrido[2,3-b][1,4]thiazin-3-yl)acetamide]	> 100 µM
CC(C)CCNC(=O)CC1Sc2ncccc2N(C)C1=O (stereo not shown) [Example 29, N-isopentyl-2-(1-methyl-2-oxo-2,3-dihydro-1H-pyrido[2,3-b][1,4]thiazin-3-yl)acetamide]	< 10 µM
CN1C(=O)C(CC(=O)NCc2ccco2)Sc2ncccc21 (stereo not shown) [Example 30, N-(furan-2-ylmethyl)-2-(1-methyl-2-oxo-2,3-dihydro-1H-pyrido[2,3-b][1,4]thiazin-3-yl)acetamide]	> 100 µM
CN1C(=O)C(CC(=O)N2CCCCCC2)Sc2ncccc21 (stereo not shown) [Example 31, 3-(2-(azepan-1-yl)-2-oxoethyl)-1-methyl-1H-pyrido[2,3-b][1,4]thiazin-2(3H)-one]	> 100 µM
CC(C)N1CCN(C(=O)CC2Sc3ncccc3N(C)C2=O)CC1 (stereo not shown) [Example 32, 3-(2-(4-isopropylpiperazin-1-yl)-2-oxoethyl)-1-methyl-1H-pyrido[2,3-b][1,4]thiazin-2(3H)-one]	> 100 µM
